Experimental data from ChEMBL document CHEMBL1131975, “Synthesis and antitumor activity of bithienyl-pyrimidine derivatives with electrostatic binding side chains” (Bioorg Med Chem Lett, 1999).
≈ marks a conversion by molar mass, not a printed value.

Experiments:
HEp-2 = experiment: In vitro cytotoxicity against human larynx carcinoma (Hep-2); format: functional, cell-based
KB = experiment: In vitro cytotoxicity against human oral epidermoid carcinoma (KB) cells; format: functional, cell-based
Nucleic Acid = experiment: Evaluated for binding affinity with DNA at a pH of 8 by Fluorimetric method; format: nucleic-acid assay
COLO 205 = experiment: In vitro cytotoxicity against human colon carcinoma (Colon-205) cells; format: functional, cell-based
HeLa = experiment: In vitro cytotoxicity against human cervical carcinoma (Hela) cells at dose 50 ug/mL; format: functional, cell-based

| Structure (SMILES) | K ass (Nucleic Acid) | IC50 (HEp-2) | IC50 (KB) | IC50 (COLO 205) | IC50 (HeLa) |
| --- | --- | --- | --- | --- | --- |
| CN(C)CCSc1nccc(-c2cccs2)n1 |  | > 50 µg/mL | > 50 µg/mL | > 50 µg/mL | > 50 µg/mL |
| CN(C)CCCOc1nccc(-c2cccs2)n1 |  | > 50 µg/mL | > 50 µg/mL | > 50 µg/mL | > 50 µg/mL |
| CN(C)CCOc1nccc(-c2cccs2)n1 |  | > 50 µg/mL | > 50 µg/mL | > 50 µg/mL | > 50 µg/mL |

Further lines, with some results ahead:

| K ass (Nucleic Acid) | Structure (SMILES) | IC50 (HEp-2) | IC50 (KB) | IC50 (COLO 205) | IC50 (HeLa) |
| --- | --- | --- | --- | --- | --- |
| 3e+07 M⁻¹ | CN(C)CCCOc1nccc(-c2ccc(-c3cccs3)s2)n1 | 11 µg/mL (≈ 31.8 µM) | 5 µg/mL (≈ 14.5 µM) | 7 µg/mL (≈ 20.3 µM) | 7 µg/mL (≈ 20.3 µM) |
| 2.1e+07 M⁻¹ | CN(C)CCOc1nccc(-c2ccc(-c3cccs3)s2)n1 | 16 µg/mL (≈ 48.3 µM) | 17 µg/mL (≈ 51.3 µM) | 12 µg/mL (≈ 36.2 µM) | 15 µg/mL (≈ 45.3 µM) |
| 6.5e+06 M⁻¹ | CN(C)CCSc1nccc(-c2ccc(-c3cccs3)s2)n1 | 50 µg/mL (≈ 144 µM) | 50 µg/mL (≈ 144 µM) | 30 µg/mL (≈ 86.3 µM) | 25 µg/mL (≈ 71.9 µM) |
